Each structure is given as a SMILES string. Non-standard residues stand in square brackets, D forms with d. Residues, ends and D or L forms follow the SMILES beside them. ξ: configuration not given here. *: point of attachment. Phe(F5) = N[C@@H](Cc1c(F)c(F)c(F)c(F)c1F)C(=O)O; Desaminotyrosyl = O=C(CCc1ccc(O)cc1)*; NMeY = CN[C@@H](Cc1ccc(O)cc1)C(=O)O; Nle = CCCC[C@H](N)C(=O)O; Orn = NCCC[C@H](N)C(=O)O; Abu = CC[C@H](N)C(=O)O; GABA = NCCCC(=O)O; ξA = CC(N)C(=O)O

Assay [1] has as its system GH release. As to the kind of experiment: In vivo endocrine activity, GH release after subcutaneous administration (Table 9). The settings on record: rat, subcutaneous (s.c.) injection. The method, then:
Subcutaneous Administration. Adult male rats were used and anesthetized with pentobarbital (6 mg/100 g, b.w.), by i.p. injection. […] Blood samples were taken from the jugular vein 5, 15 and/or 30 minutes after the injection. The blood samples were centrifuged, plasma was removed and the GH level was measured byELISA. The results are summarized in terms of potency in Table 9.

For assay [2], the target named is T1, GHRH receptor (Homo sapiens, UniProt Q02643).
T1 sequence (Q02643 23-423): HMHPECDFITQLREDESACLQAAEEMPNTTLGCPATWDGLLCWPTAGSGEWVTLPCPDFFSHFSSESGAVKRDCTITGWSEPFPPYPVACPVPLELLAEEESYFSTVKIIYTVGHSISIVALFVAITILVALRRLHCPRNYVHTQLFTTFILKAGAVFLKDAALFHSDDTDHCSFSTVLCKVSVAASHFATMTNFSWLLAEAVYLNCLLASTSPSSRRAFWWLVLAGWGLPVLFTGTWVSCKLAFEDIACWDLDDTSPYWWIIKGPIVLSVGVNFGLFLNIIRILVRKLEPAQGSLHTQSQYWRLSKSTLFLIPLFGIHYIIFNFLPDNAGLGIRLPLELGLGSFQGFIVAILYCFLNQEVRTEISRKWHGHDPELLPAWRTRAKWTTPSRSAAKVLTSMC
As to the kind of experiment: GHRH receptor binding, competition with 125I-labeled JV-1-42, human pituitary membrane homogenates (Table 7). Further details: Normal human pituitaries were purchased from the National Hormone and Peptide Program; tissue National Hormone and Peptide Program (A.F. Parlow, Harbor-UCLA Medical Center, Torrance, Calif.); host or cells: normal human pituitary, membrane fraction. The following applies: JI-38 = 1, Table 7. The text has this: Normal human pituitaries were purchased from the National Hormone and Peptide Program (A.F. Parlow, Los Angeles, County Harbor-UCLA Medical Center, Torrance, Calif.).

Take `CCCC[C@H](NC(=O)[C@@H](NC(=O)[C@H](CC(=O)O)NC(=O)[C@H](CCC(N)=O)NC(=O)[C@H](CC(C)C)NC(=O)[C@H](CC(C)C)NC(=O)[C@H](CCCN)NC(=O)[C@H](CCCNC(=N)N)NC(=O)[C@H](C)NC(=O)[C@H](CO)NC(=O)[C@H](CC(C)C)NC(=O)[C@H](CCC(N)=O)NC(=O)[C@H](CC)NC(=O)[C@H](CC(C)C)NC(=O)[C@@H](NC(=O)[C@H](CCCN)NC(=O)[C@H](CCCNC(=N)N)NC(=O)[C@H](Cc1ccc(O)cc1)NC(=O)[C@H](CO)NC(=O)[C@H](CC(N)=O)NC(=O)[C@@H](NC(=O)[C@H](Cc1ccccc1)NC(=O)[C@@H](NC(=O)[C@H](C)NC(=O)[C@H](CC(=O)O)NC(=O)[C@@H](C)NC(=O)CCc1ccc(O)cc1)[C@@H](C)CC)[C@@H](C)O)C(C)C)[C@@H](C)CC)C(=O)N[C@@H](CC(=O)O)C(=O)N[C@@H](CCCNC(=N)N)C(=O)NC` [Peptide P-27400, [Dat^1, D-Ala^2, Orn^12, Abu^15, Orn^21, Nle^27, Asp^28]hGHRH(1-29)NH—CH3] (Desaminotyrosyl-[dA]DAIFTNSYR[Orn]VL[Abu]QLSAR[Orn]LLQDI[Nle]DR-NHMe): the “GH releasing potency relative to JI-38 (=1)” value is reported as 0.47 in assay [1] (15 min after) and 0.38 in assay [1] (30 min after). The “Relative affinity (Binding potency) vs JI-38” value (shortened to “Relative affinity”) in assay [2] was determined as 1.30.

Consider `CCCC[C@H](NC(=O)[C@@H](NC(=O)[C@H](CC(=O)O)NC(=O)[C@H](CCC(N)=O)NC(=O)[C@H](CC(C)C)NC(=O)[C@H](CC(C)C)NC(=O)[C@H](CCCN)NC(=O)[C@H](Cc1c[nH]cn1)NC(=O)[C@H](C)NC(=O)[C@H](CO)NC(=O)[C@H](CC(C)C)NC(=O)[C@H](CCC(N)=O)NC(=O)[C@H](CC)NC(=O)[C@H](CC(C)C)NC(=O)[C@@H](NC(=O)[C@H](CCCN)NC(=O)[C@H](Cc1c[nH]cn1)NC(=O)[C@H](Cc1ccc(O)cc1)NC(=O)[C@H](CO)NC(=O)[C@H](CCC(N)=O)NC(=O)[C@@H](NC(=O)[C@H](Cc1ccccc1)NC(=O)[C@@H](NC(=O)[C@H](C)NC(=O)[C@H](CC(=O)O)NC(=O)C(C)NC(=O)CCc1ccc(O)cc1)[C@@H](C)CC)[C@@H](C)O)C(C)C)[C@@H](C)CC)C(=O)N[C@@H](CC(=O)O)C(=O)N[C@@H](CCCNC(=N)N)C(=O)NC` (stereo partly drawn) [Peptide P-27413, [Dat^1, Gln^8, His^11, Orn^12, Abu^15, His^20, Orn^21, Nle^27, Asp^28]hGHRH(1-29)NH—CH3] (Desaminotyrosyl-[ξA]DAIFTQSYH[Orn]VL[Abu]QLSAH[Orn]LLQDI[Nle]DR-NHMe), for which the “GH releasing potency relative to JI-38 (=1)” value in assay [1] (15 min after) was found to be 0.36; in assay [1] (30 min after), 0.57. For the same compound, the “Relative affinity” value in assay [2] is reported as 1.78.

For `CCCC[C@H](NC(=O)[C@@H](NC(=O)[C@H](CC(=O)O)NC(=O)[C@H](CCC(N)=O)NC(=O)[C@H](CC(C)C)NC(=O)[C@H](CC(C)C)NC(=O)[C@H](CCCN)NC(=O)[C@H](CCCNC(=N)N)NC(=O)[C@H](C)NC(=O)[C@H](CO)NC(=O)[C@H](CC(C)C)NC(=O)[C@H](CCC(N)=O)NC(=O)[C@H](CC)NC(=O)[C@H](CC(C)C)NC(=O)[C@@H](NC(=O)[C@H](CCCN)NC(=O)[C@H](CCCNC(=N)N)NC(=O)[C@H](Cc1ccc(O)cc1)NC(=O)[C@H](CO)NC(=O)[C@H](CC(N)=O)NC(=O)[C@@H](NC(=O)[C@H](Cc1c(F)c(F)c(F)c(F)c1F)NC(=O)[C@@H](NC(=O)[C@H](C)NC(=O)[C@H](CC(=O)O)NC(=O)[C@@H](C)NC(=O)[C@H](Cc1ccc(O)cc1)NC)[C@@H](C)CC)[C@@H](C)O)C(C)C)[C@@H](C)CC)C(=O)N[C@@H](CO)C(=O)N[C@@H](CCCNC(=N)N)C(=O)NCCCC(=O)NC` [Peptide P-27414, [N—Me-Tyr^1, D-Ala^2, Fpa5^6, Orn^12, Abu^15, Orn^21, Nle^27, Gab^30]hGHRH(1-30)NH—CH3] (H-[NMeY][dA]DAI[Phe(F5)]TNSYR[Orn]VL[Abu]QLSAR[Orn]LLQDI[Nle]SR[GABA]-NHMe), the “GH releasing potency relative to JI-38 (=1)” value in assay [1] (15 min after) was found to be 1.30; in assay [1] (30 min after), 1.23. For the same compound, in assay [2], the “Relative affinity” value amounted to 2.79.

As to `CCCC[C@H](NC(=O)[C@@H](NC(=O)[C@H](CC(=O)O)NC(=O)[C@H](CCC(N)=O)NC(=O)[C@H](CC(C)C)NC(=O)[C@H](CC(C)C)NC(=O)[C@H](CCCN)NC(=O)[C@H](CCCNC(=N)N)NC(=O)[C@H](C)NC(=O)[C@H](CO)NC(=O)[C@H](CC(C)C)NC(=O)[C@H](CCC(N)=O)NC(=O)[C@H](CC)NC(=O)[C@H](CC(C)C)NC(=O)[C@@H](NC(=O)[C@H](CCCN)NC(=O)[C@H](CCCNC(=N)N)NC(=O)[C@H](Cc1ccc(O)cc1)NC(=O)[C@H](CO)NC(=O)[C@H](CC(N)=O)NC(=O)[C@@H](NC(=O)[C@H](Cc1ccccc1)NC(=O)[C@@H](NC(=O)[C@H](C)NC(=O)[C@H](CC(=O)O)NC(=O)[C@H](C)NC(=O)[C@H](Cc1ccc(O)cc1)NC)[C@@H](C)CC)[C@@H](C)O)C(C)C)[C@@H](C)CC)C(=O)N[C@@H](CO)C(=O)N[C@@H](CCCNC(=N)N)C(=O)NCCCC(=O)NC` [Peptide P-27415, [N—Me-Tyr^1, Orn^12, Abu^15, Orn^21, Nle^27, Gab^30]hGHRH(1-30)NH—CH3] (H-[NMeY]ADAIFTNSYR[Orn]VL[Abu]QLSAR[Orn]LLQDI[Nle]SR[GABA]-NHMe), the “GH releasing potency relative to JI-38 (=1)” value in assay [1] (15 min after) is reported as 0.45; in assay [1] (30 min after), 0.41. For the same compound, the “Relative affinity” value in assay [2] turned out to be 1.44.

Values taken from US10555987B2, “GHRH agonists for the treatment of ischemic disorders” (UNIVERSITY OF MIAMI, priority 2012, dated 2020).
